Measurements published in patent US20230278972A1, “SUBSTITUTED HALOALKYL SULFONANILIDE HERBICIDES” (FMC Corporation, priority 2020, published 2023).

How the values were obtained:
Format in all cases: in vivo
[1] = system: Foxtail, Giant (giant foxtail, Setaria faberi); assay: Test A1 postemergence, Foxtail, Giant; conditions: for Plant response rating, Foxtail, Giant: Postemergence; for Foxtail, Giant plant response rating: postemergence
Method in brief: (§1)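 Test compounds were formulated in a non-phytotoxic solvent mixture containing a surfactant. For preemergence, seeds sown in a loam soil–sand blend received a directed soil spray. For postemergence, potted plants in the same soil, 2 to 10 cm tall at the one- to two-leaf stage, were sprayed.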

[2] = system: wheat (Triticum aestivum); assay: Test A1 preemergence, wheat
Method in brief: as §1

[3] = system: blackgrass (Alopecurus myosuroides); assay: Test A1 postemergence, blackgrass; conditions: Postemergence, 0 to 100 scale (0 no effect, 100 complete control)
Method in brief: as §1

[4] = system: ragweed (common ragweed, Ambrosia artemisiifolia); assay: Test A1 preemergence, ragweed
Method in brief: as §1

[5] = system: goosegrass (Eleusine indica); assay: Test A1 postemergence, goosegrass; conditions: for Plant response rating, Goosegrass: Postemergence; for Goosegrass plant response rating: postemergence
Method in brief: as §1

[6] = system: barnyardgrass (Echinochloa crus-galli); assay: Test B1 flooded paddy test, barnyardgrass; conditions: 250 g ai/ha, Flood, applied to paddy water, 2-leaf stage, visually evaluated after 10 to 14 days
Excerpt: A dash (-) response means no test result.

[7] = system: Oat, Wild (wild oat, Avena fatua); assay: Test A1 postemergence, Oat, Wild; conditions: for Plant response rating, Oat, Wild: Postemergence; for Oat, Wild plant response rating: postemergence
Method in brief: as §1

[8] = system: Pigweed, Palmer (palmer amaranth, palmer pigweed, Amaranthus palmeri); assay: Test A1 postemergence, Pigweed, Palmer; conditions: for Plant response rating, Pigweed, Palmer: Postemergence; for Pigweed, Palmer plant response rating: postemergence
Method in brief: as §1

[9] = 31 g ai/ha, 0 to 100 scale (0 no effect, 100 complete control), 10 days
[10] = 31 g ai/ha, 0 to 100 scale (0 no effect, 100 complete control)
[11] = 125 g ai/ha, 0 to 100 scale, 0 no effect, 100 complete control

Structure (SMILES) | Plant response rating, Foxtail, Giant [1, 9] | Plant response rating, Foxtail, Giant ([1]; 125 g ai/ha, 0 to 100 scale) | Plant response rating, Wheat [2, 10] | Plant response rating, Wheat [2, 11] | Plant response rating, Blackgrass ([3]; 31 g ai/ha, 10 days) | Plant response rating, Blackgrass ([3]; 125 g ai/ha) | Plant response rating, Ragweed [4, 10] | Plant response rating, Ragweed [4, 11] | Plant response rating, Goosegrass [5, 9] | Plant response rating, Goosegrass ([5]; 125 g ai/ha, 0 to 100 scale) | Plant response rating, Barnyardgrass (0 to 100 scale, 0 is no effect, 100 is complete control) [6] | Plant response rating, Oat, Wild [7, 9] | Plant response rating, Oat, Wild ([7]; 125 g ai/ha, 0 to 100 scale) | Plant response rating, Pigweed, Palmer [8, 9] | Plant response rating, Pigweed, Palmer ([8]; 125 g ai/ha, 0 to 100 scale) | Foxtail, Giant plant response rating [1, 10] | Goosegrass plant response rating [5, 10] | Oat, Wild plant response rating [7, 10] | Pigweed, Palmer plant response rating [8, 10]
CCOC(=O)N(c1cc(C(=O)N2CCC(c3ccccc3)CC2)c(C)cc1C)S(=O)(=O)C(F)(F)F [Compound 365] | 0 | 0 | 0 | 0 | 0 | 30 | 0 | 20 | 0 | 0 | 15 | 0 | 0 | 0 | 0 | – | – | – | –
COC1CCN(C(=O)c2cc(NS(=O)(=O)C(F)(F)F)c(C)c(C)c2C)CC1 [Compound 367] | – | 90 | 10 | 40 | 0 | 0 | 20 | 90 | – | 70 | 60 | – | 0 | – | 40 | 10 | 10 | 0 | 40
C#CCN(C)C(=O)c1cc(NS(=O)(=O)C(F)(F)F)c(C)c(C)c1C [Compound 368] | – | 90 | 20 | 100 | 0 | 10 | 50 | 80 | – | 90 | 70 | – | 10 | – | 40 | 80 | 30 | 0 | 20
Cc1c(C(=O)N2CCC(C)CC2)cc(N(COC(=O)C(C)(C)C)S(=O)(=O)C(F)(F)F)c(C)c1C [Compound 369] | – | 90 | 0 | 0 | 0 | 0 | 0 | 90 | – | 0 | 90 | – | 0 | – | 40 | 20 | 0 | 0 | 0
COC1CCN(C(=O)c2cc(N(COC(=O)C(C)(C)C)S(=O)(=O)C(F)(F)F)c(C)c(C)c2C)CC1 [Compound 370] | – | 80 | 0 | 10 | 0 | 0 | 0 | 70 | – | 60 | 95 | – | 0 | – | 20 | 10 | 0 | 0 | 0
C#CCN(C)C(=O)c1cc(N(COC(=O)C(C)(C)C)S(=O)(=O)C(F)(F)F)c(C)c(C)c1C [Compound 371] | – | 90 | 0 | 10 | 0 | 10 | 40 | 90 | – | 80 | 95 | – | 0 | – | 30 | 90 | 0 | 0 | 0
Cc1cc(C)c(C2=NOC3OCCCC23)cc1NS(=O)(=O)C(F)(F)F (stereo not drawn) [Compound 372] | – | 40 | 10 | 30 | 0 | 30 | 0 | 70 | – | 80 | 20 | – | 10 | – | 40 | 0 | 0 | 0 | 30
CCC1CC(c2cc(NS(=O)(=O)C(F)(F)F)c(C)cc2C)=NO1 (stereo not drawn) [Compound 375] | – | 10 | 0 | 100 | 0 | 0 | 0 | 20 | – | 90 | 50 | – | 0 | – | 20 | 0 | 50 | 0 | 0
CCC1CC(c2cc(N(COC(=O)C(C)(C)C)S(=O)(=O)C(F)(F)F)c(C)cc2C)=NO1 (stereo not drawn) [Compound 376] | – | 20 | 0 | 20 | 0 | 50 | 0 | 0 | – | 50 | 95 | – | 0 | – | 20 | 0 | 0 | 0 | 0
